Experimental data from US9243221B2, “Compositions and methods of functionally enhanced in vitro cell culture system” (HUREL CORPORATION, priority 2008, dated 2016).
Like-named read-outs stand apart in the source and are kept apart here.

Assays:
[1] = system: Cryopreserved human hepatocytes; assay: Long term accumulation of 4-OH midazolam in culture media of oxygenated hepatocyte co-cultures; assay type: in vitro ADME; conditions: in the presence and absence of rifampicin; FIG. 5B
[2] = system: Cryopreserved human hepatocytes
Procedure: Cryopreserved human hepatocytes are cultured with 3T3-J2 fibroblasts under serum free conditions. Following overnight incubation in high oxygen tension (95% O2, 5% CO2) the cells are exposed to one of the following drugs: antipyrine, buspirone, metoprolol, sildenafil, and timolol.

Row | SMILES | clearance of drugs ([2]; human) | other results
1 | Cc1ncc2n1-c1ccc(Cl)cc1C(c1ccccc1F)=NC2O (stereo not shown) [4-OH midazolam] | – | accumulation of 4-OH midazolam in the culture media [1]: can be detected over 30 hours of culture
2 | Cc1cc(=O)n(-c2ccccc2)n1C [antipyrine] | – | clearance of drugs ([2]; cryopreserved human hepatocytes with 3T3-J2 fibroblasts, serum free, overnight 95% O2, 5% CO2, FIG. 5A): slow clearing
3 | CCCc1nn(C)c2c(=O)[nH]c(-c3cc(S(=O)(=O)N4CCN(C)CC4)ccc3OCC)nc12 [sildenofil, sildenafil] | slow clearing | –
4 | CC(C)(C)NC[C@H](O)COc1nsnc1N1CCOCC1 [timolol] | slow clearing | –
